Measurements reported in patent US10391095B2, “DNA-PK inhibitors” (Vertex Pharmaceuticals Incorporated, priority 2012, dated 2019).

The compounds below were run against DNA-PK (Homo sapiens, UniProt P78527) (assay: DNA-PK inhibition assay (radiometric, 33P-ATP)). Settings: 100 μM ATP, competitive tight-binding fit.
Assay type: biochemical
Description: Compounds were screened for their ability to inhibit DNA-PK kinase using a standard radiometric assay. Briefly, in this kinase assay the transfer of the terminal ^33P-phosphate in ^33P-ATP to a peptide substrate is interrogated. The assay was carried out in 384-well plates to a final volume of 50 μL per well containing approximately 6 nM DNA-PK, 50 mM HEPES (pH 7.5), 10 mM MgCl2, 25 mM NaCl, 0.01% BSA, 1 mM DTT, 10 μg/mL sheared double-stranded DNA (obtained from Sigma), 0.8 mg/mL DNA-PK peptide ([…] obtained from American Peptide), and 100 μM ATP. Accordingly, compounds of the invention were dissolved in DMSO to make 10 mM initial stock solutions. Serial dilutions in DMSO were then made to obtain the final solutions for the assay. A 0.75 μL aliquot of DMSO or inhibitor in DMSO was added to each well, followed by the addition of ATP substrate solution containing ^33P-ATP (obtained from Perkin Elmer). The reaction was started by the addition of DNA-PK, peptide and ds-DNA. After 45 min, the reaction was quenched with 25 μL of 5% phosphoric acid. The reaction mixture was transferred to MultiScreen HTS 384-well PH plates (obtained from Millipore), allowed to bind for one hour, and washed three times with 1% phosphoric acid. Following the addition of 50 μL of Ultima Gold™ high efficiency scintillant (obtained from Perkin Elmer), the samples were counted in a Packard TopCount NXT Microplate Scintillation and Luminescence Counter (Packard BioScience). The Ki values were calculated using Microsoft Excel Solver macros to fit the data to the kinetic model for competitive tight-binding inhibition.

Ki, < 0.03 µM:
COc1cc(N)ccc1C(C)CNc1cc(-c2ccc(C)nc2)ncn1 (stereo not drawn) [Compound 178]
COc1ncc(-c2cc(NC[C@@H](C)c3ccnc4c3OCCO4)ncn2)cc1N [Compound 519]
CCNC(=O)Cn1ncc2cc(-c3cc(NC[C@@H](C)c4ccccc4OC)ncn3)cnc21 [Compound 147]
COc1cc(Br)ccc1C(C)CNc1cc(-c2ccc(C)nc2)ncn1 (stereo not drawn) [Compound 423]
CNC(=O)c1ccc(C(C)CNc2cc(-c3ccc4c(cnn4CCO)c3)ncn2)c(OC)c1 (stereo not drawn) [Compound 246]
CNC(=O)c1ccnc2c([C@H](C)CNc3cc(-c4cnn(C)c4)ncn3)cccc12 [Compound 661]
CNC(=O)c1ccnc2c([C@H](C)CNc3cc(-c4ccc(N5C[C@@H]6CCN(C)[C@@H]6C5)nc4)ncn3)cccc12 [Compound 720]
CCc1ccc(-c2cc(NC[C@@H](C)c3cccc4c(C(=O)NC)ccnc34)ncn2)cn1 [Compound 789]
Cc1ccc(-c2cc(NCC(C)c3cccc4c(C)ncnc34)ncn2)cn1 (stereo not drawn) [Compound 838]
COc1ccccc1CCNc1cc(-c2cnc3c(cnn3C(C)C)c2)ncn1 [Compound 44]
CNC(=O)c1ccnc2c([C@H](C)CNc3cc(-c4cnc5c(c4)CCN5)ncn3)cccc12 [Compound 954]
COc1cc(C(=O)NC2CC2)ccc1C(C)CNc1cc(-c2ccc(C)nc2)ncn1 (stereo not drawn) [Compound 158]
CNC(=O)c1ccc([C@H](C)CNc2cc(-c3ccc4c(ccn4C)c3)ncn2)c(OC)c1 [Compound 268]
Cc1ccc(-c2cc(NC[C@@H](C)c3cccc4c(C(=O)NCC(F)F)ccnc34)ncn2)cn1 [Compound 569]
CNC(=O)c1c(-n2ccnc2)cnc2c([C@H](C)CNc3cc(-c4ccc(C)nc4)ncn3)cccc12 [Compound 763]
CNC(=O)c1ccnc2c([C@H](C)CNc3cc(-c4cnc5c(c4)CN(C(C)=O)CC5)ncn3)cccc12 [Compound 815]
Cc1ccc(-c2cc(NCC(C)c3ccccc3OC3COC3)ncn2)cn1 (stereo not drawn) [Compound 101]
CCNc1ccc(-c2cc(NC[C@@H](C)c3ccc(C(=O)NC)cc3OC)ncn2)cn1 [Compound 360]
CNC(=O)c1ccnc2c([C@H](C)CNc3cc(-c4ccc(NC5CC5)nc4)ncn3)cccc12 [Compound 628]
CNC(=O)c1ccc([C@H](C)CNc2cc(-c3ccc(N(C)CCOC)nc3)ncn2)c(OC)c1 [Compound 370]
CNC(=O)c1ccnc2c([C@H](C)CNc3cc(-c4cnc(C5CCOCC5)nc4)ncn3)ccc(F)c12 [Compound 832]
CNC(=O)c1c(F)cnc2c([C@H](C)CNc3cc(-c4cnc(C)nc4)ncn3)cccc12 [Compound 636]
CNC(=O)c1ccnc2c([C@H](C)CNc3cc(-c4cnc(CO)c(OC)c4)ncn3)cccc12 [Compound 821]
CNC(=O)c1ccnc2c([C@H](C)CNc3cc(-c4cnc(N5CCOCC5)nc4)ncn3)cccc12 [Compound 650]
C[C@H](CNc1cc(-c2cnc3c(cnn3CCO)c2)ncn1)c1cccc2c(C(F)F)c(F)cnc12 [Compound 814]
CNC(=O)c1ccnc2c([C@H](C)CNc3cc(-c4ccc(N5CCCC5)nc4)ncn3)cccc12 [Compound 723]
CNC(=O)c1ccc([C@H](C)CNc2cc(-c3ccc4c(cnn4C)c3)ncn2)c(OC)c1 [Compound 293]
CNC(=O)c1ccnc2c([C@H](C)CNc3cc(-c4cnc(C)s4)ncn3)cccc12 [Compound 778]
CNC(=O)c1ccc([C@H](C)CNc2cc(-c3ccc4c(c3)OCC(=O)N4)ncn2)c(OC)c1 [Compound 314]
CNC(=O)c1ccnc2c([C@H](C)CNc3cc(-c4cncc(OC)c4)ncn3)cccc12 [Compound 878]
CNC(=O)c1ccnc2c([C@H](C)CNc3cc(-c4ccc(NCC(F)F)nc4)ncn3)cccc12 [Compound 975]
CNCCNc1ccc(-c2cc(NC[C@@H](C)c3ccc(C(=O)NC)cc3OC)ncn2)cn1 [Compound 469]
CNC(=O)c1ccc([C@H](C)CNc2cc(-c3cnc4c(cnn4C4CCN(C)CC4)c3)ncn2)c(OC)c1 [Compound 286]
COCCn1ncc2cc(-c3cc(NCC(C)c4cnccc4OC4CC4)ncn3)cnc21 (stereo not drawn) [Compound 176]
CNC(=O)c1ccnc2c([C@H](C)CNc3cc(-c4ccc(C)nc4)ncn3)ccc(OC)c12 [Compound 509]
C[C@H](CNc1cc(-c2cc(F)c3ncccc3c2)ncn1)c1ccnc2c1OCCO2 [Compound 556]
CNC(=O)c1c(F)cnc2c([C@H](C)CNc3cc(-c4cnc(OC)c(N)c4)ncn3)cccc12 [Compound 902]
Cc1ccc(-c2cc(NCC(C)c3ccccc3OC3CCC3)ncn2)cn1 (stereo not drawn) [Compound 240]
COc1ccccc1[C@H](C)CNc1cc(-c2ccc(F)nc2)ncn1 [Compound 96]
CNC(=O)c1ccnc2c([C@H](C)CNc3cc(-c4cnc(OC)c(CO)c4)ncn3)cccc12 [Compound 882]
COCCn1ncc2cc(-c3cc(NCC(C)c4sccc4OC)ncn3)cnc21 (stereo not drawn) [Compound 260]
COc1ccccc1[C@H](C)CNc1cc(-c2ccnc(NCCO)c2)ncn1 [Compound 119]
C[C@H](CNc1cc(-c2ccc(N3CCN(C)CC3)nc2)ncn1)c1cccc2c1OCC2 [Compound 132]
CNC(=O)c1ccnc2c([C@H](C)CNc3cc(-c4ccc(N5CCOC(C)C5)nc4)ncn3)cccc12 (single isomer, unassigned) [Compound 713]
CNC(=O)c1ccnc2c([C@H](C)CNc3cc(-c4cnc(C)c(F)c4)ncn3)cccc12 [Compound 972]
CNC(=O)c1ccnc2c([C@H](C)CNc3cc(-c4cnc(OC)s4)ncn3)cccc12 [Compound 779]
CCNc1ncc(-c2cc(NC[C@@H](C)c3cccc4c(C(=O)NC)ccnc34)ncn2)cn1 [Compound 942]
C[C@H](CNc1cc(-c2ccc(N3CCOCC3)nc2)ncn1)c1ccnc2c1OCCO2 [Compound 522]
Cc1ncc(-c2cc(NC[C@@H](C)c3cccc4nccnc34)ncn2)cn1 [Compound 662]
CCOc1ncc(-c2cc(NC[C@@H](C)c3ccc(F)c4c(C(=O)NC)ccnc34)ncn2)cn1 [Compound 652]
COc1ccccc1[C@H](C)CNc1cc(-c2cnc3c(cnn3C3COC3)c2)ncn1 [Compound 179]
C[C@H](CNc1cc(-c2ccc3ncccc3c2)ncn1)c1ccnc2c1OCCO2 [Compound 464]
CNC(=O)c1ccnc2c([C@H](C)CNc3cc(-c4ccc(C(O)C(C)C)nc4)ncn3)ccc(F)c12 (stereo partly drawn) [Compound 926]
CNC(=O)c1ccnc2c([C@H](C)CNc3cc(-c4ccc(C)nc4)ncn3)cc(F)cc12 [Compound 562]
CNC(=O)c1ccc(C(C)CNc2cc(-c3cnc4c(cnn4C4CN(C(C)=O)C4)c3)ncn2)c(OC)c1 (stereo not drawn) [Compound 248]
CNC(=O)c1c(F)cnc2c([C@H](C)CNc3cc(-c4cncc(C#N)c4)ncn3)cccc12 [Compound 963]
CNC(=O)c1c(F)cnc2c([C@H](C)CNc3cc(-c4cn[nH]c4)ncn3)cccc12 [Compound 785]
CNC(=O)c1ccnc2c([C@H](C)CNc3cc(-c4ccc(OC)c(F)c4)ncn3)cccc12 [Compound 823]
CNC(=O)c1ccnc2c([C@H](C)CNc3cc(-c4cnc(C#N)c(OC)c4)ncn3)ccc(F)c12 [Compound 923]
CNC(=O)c1ccc(C(C)CNc2cc(-c3ccc4c(cnn4C4COC4)c3C)ncn2)c(OC)c1 (stereo not drawn) [Compound 278]
CNC(=O)c1ccc([C@H](C)CNc2cc(-c3ccc(N4CCC4)nc3)ncn2)c(OC)c1 [Compound 395]
[2H]c1nc(C)nc([2H])c1-c1cc(NC[C@@H](C)c2ccc(F)c3c(C(=O)NC)ccnc23)ncn1 [Compound 861]
C[C@H](CNc1cc(-c2cnc3c(cnn3CCO)c2)ncn1)c1ccnc2cccnc12 [Compound 472]
